Test results from patent publication US20190247333A1, “METHOD OF REDUCTION IN […] […]” (ZOGENIX INTERNATIONAL LIMITED, priority 2017, published 2019).

Legend:
[1] = tested on: patients with Dravet syndrome; assay: Study 1: Phase 3 randomized, double-blind, placebo-controlled study of ZX008 as adjunctive therapy (ZX008-1501/1502); type: in vivo, human; conditions: for mean (SD) number of non-convulsive seizures (all types) per 28 days: Baseline; for reduction from Baseline in non-convulsive seizure frequency: T+M Period; for mean (SD) non-convulsive seizure frequency per 28 days: end of T+M Period
Method: The first 119 subjects to be randomized in both identical studies combined were analyzed and reported as Study 1 (FIG. 1), covered by a Statistical Analysis Plan (SAP).
Primary and key secondary endpoints in the Study 1 SAP were pre-determined. All patients were treated twice per day over a period of 14 weeks using an oral syringe to administer the formulation. The treatment period included a two-week titration period and a 12-week maintenance period.
The initial results of Study 1 are outlined below. The randomized, double blind, placebo controlled, Phase 3 study enrolled 119 patients across sites in the United States, Canada, Europe and Australia. The median age of patients was 8 years, the mean age of patients was 9 years (range, 2-18 years) (FIG. 2).
Patients were titrated to their target dose over two weeks, and then remained at that fixed dose for 12 weeks. The mean baseline convulsive seizure frequency across the study groups was approximately 40 seizures per month. 110 (92%) patients completed the study (85% 0.8 mg/kg/day; 100% 0.2 mg/kg/day; 93% placebo).
The proportion of patients who achieved ≥75% seizure reductions, a secondary (non-key) efficacy measure, is also presented.
The mean number of convulsive seizure free days, defined as a day for which diary data are available and no convulsive seizures have been reported, was determined for each treatment group during the Baseline and T+M Periods. Using a parametric analysis, comparisons for the ZX008 groups to placebo were estimated from an ANCOVA model with treatment group (3 levels) and age group (<6 years, ≥6 years) as factors, log baseline number of convulsive seizure free days as a covariate and log convulsive seizure free days (Titration+Maintenance, or Maintenance Period) as response. The mean (SD) number of convulsive seizure free days per 28 days during the Baseline Period was 12.6 (7.68), 15.7 (6.80), and 14.6 (7.59) for the placebo, 0.2 and 0.8 mg/kg/day groups, respectively. […] The mean (SD) number of convulsive seizure free days for the 0.2 mg/kg/day group was 17.9 (8.04) days, which was numerically greater than placebo, but was not statistically significant (p=0.514). Similar results were obtained with a nonparametric analysis where the difference between the 0.8 mg/kg/day and placebo groups was statistically significant (p<0.001) while the difference between the 0.2 mg/kg/day and placebo groups was not (p=0.102).

[2] = tested on: patients with Dravet syndrome; conditions: cited from earlier work
[3] = tested on: patients with Dravet syndrome; assay: Open-label extension (OLE) study (Study 1503); type: in vivo, human; conditions: for median decrease in MCSF over the entire observation period compared to baseline: OLE interim analysis
Method: Table 7 presents additional analysis of seizure free intervals in the two placebo-controlled studies prior to the OLE. Inclusion criteria in both studies were for patients aged ≥2 years. Subgroup analysis was performed on patients between ≥2 to <6 years and on patients ≥6 years.
Patients (2-18 years old) entered a long-term, OLE study (Study 1503) after completing either Study 1 or Study 1504: Study 1 (14 wk; FFA: 0, 0.2, or 0.8 mg/kg/d; max, 30 mg/d in stiripentol [STP]-free AED regimens) or Study 1504 (15 wk; FFA: 0.5 mg/kg/d; max, 20 mg/d in AED+STP regimens). In 1503, all patients received 0.2 mg/kg/d FFA for 1 month; dosing was titrated to therapeutic effect thereafter.
A total of 42 of 158 (26.6%) patients who enrolled in the OLE were <6 years old at time of entry into the OLE study. The median baseline monthly convulsive seizure frequency (MCSF) prior to double-blind treatment was 10.7 seizures/month (range, 4.0 to 147.3). At the time of the OLE interim analysis, the median decrease in MCSF over the entire observation period compared to baseline was −76% (P<0.001) compared with −64% in the overall study population during the same time period.

[4] = long-term fenfluramine treatment

## CCNC(C)Cc1cccc(C(F)(F)F)c1 (racemic) [fenfluramine, 3-trifluoromethyl-N-ethylamphetamine]
[1]; 0.2 mg/kg/day group
  mean (SD) number of non-convulsive seizures (all types) per 28 days: 193.6 (478.45) per 28 days
[1]; 0.2 mg/kg/day
  reduction from Baseline in non-convulsive seizure frequency: 9.7%
  mean (SD) non-convulsive seizure frequency per 28 days: 93.7 (219.69) per 28 days
[1]; 0.8 mg/kg/day group
  mean (SD) number of non-convulsive seizures (all types) per 28 days: 335.2 (758.58) per 28 days
[1]; 0.8 mg/kg/day
  reduction from Baseline in non-convulsive seizure frequency: 59.1%
  mean (SD) non-convulsive seizure frequency per 28 days: 127.9 (297.39) per 28 days
[2]; fenfluramine and valproate, average 0.34 mg/kg/day for between 1 and 22 years
  Seizure-free Patients: 66.6%
[2]; [4]
  heart valve defects by echocardiography: No clinically relevant defects were identified
  reduction in seizures: 75%
[2]; not only photosensitive or self-induced seizures
  incidence of all types of seizures: effectively reduced the incidence of all types of seizures
[3]; Dravet patients 6 years of age or less
  reduction in MCSF: sustained, clinically meaningful reduction in MCSF
[3]; overall study population
  median decrease in MCSF over the entire observation period compared to baseline: −64%
[3]; patients <6 years old at entry
  median decrease in MCSF over the entire observation period compared to baseline: −76%
[3]; OLE, patients <6 years old
  most frequently reported AE's: pyrexia, nasopharyngitis, upper respiratory tract infections, and diarrhea
